Test results reported in publication PMC12508057, “Discovery of ETI41 and ETI60: novel selective endosomal Toll-like receptor inhibitors for the treatment of autoimmune diseases” (Experimental & Molecular Medicine, 2025).
Like-named read-outs stand apart in the source and are kept apart here.

How the values were obtained:
[1] = tested on: TLR7- and TLR9-dependent downstream signaling; assay: Western blot of TLR7- and TLR9-dependent downstream signaling in RAW 264.7; format: cell-based, mouse; settings: RAW 264.7, 5 or 10 μM
Experimental: RAW 264.7 cells were seeded into 60-mm dishes at 1 × 10^6 cells per dish. After 30 min of treatment with ETI41 or ETI60, the cells were stimulated with 2 μM IMQ (a TLR7 agonist) or 1 μM ODN2395 (a TLR9 agonist). Lysates were prepared using a Mammalian Protein Extraction Kit (Thermo Fisher Scientific) with protease and phosphatase inhibitors. Nuclear proteins were extracted using an NE-PER Nuclear and Cytoplasmic Extraction Kit (Thermo Fisher Scientific). Proteins were quantified using a bicinchoninic acid kit (Sigma-Aldrich), separated by SDS–PAGE and transferred onto nitrocellulose membranes (GE Healthcare). Membranes were incubated with specific primary antibodies and horseradish peroxidase-conjugated secondary antibodies. […] Protein bands were detected using a chemiluminescent substrate (SuperSignal West Pico PLUS; Thermo Fisher Scientific) and visualized using a Fuji LAS-3000 system (Fujifilm).
Fig. 2 ETI41 and ETI60 inhibit TLR7- and TLR9-dependent downstream signaling. a, b Western blot analysis was used to quantify the protein levels of phosphorylated p-ERK, p-JNK, p38, Iκ-Bα and p65. […] Statistical differences between the induced and other cases were analyzed and verified using a one-tailed Student’s t-test (*P < 0.05, **P < 0.01, ***P < 0.001). e–g The TLR7 agonist IMQ (1 μM) was used in 3’ RNA-seq analysis to induce signaling associated with immune responses in RAW 264.7 cells. […]

IMQ-induced psoriasis = IMQ-induced psoriasis in mice; format: in vivo, mouse; settings: 60 mg/kg oral daily
Experimental: Six-week-old female C57BL/6J mice were assigned to the following treatment groups: vehicle (n = 5), IMQ (n = 5), ETI41 (n = 4) and ETI60 (n = 5). The mice were obtained from Orient Bio to evaluate the effects of ETI41 and ETI60 on induced psoriasis-like symptoms. This study was approved by the Institutional Animal Care and Use Committee (IACUC; approval no. 2014-0007). Psoriasis was induced using Aldara cream (3M Pharmaceuticals), which was applied topically at 62.5 mg/cm² daily from the day after hair removal until the fourth day. Mice were orally administered 60 mg/kg ETI41 or ETI60 daily commencing on the second day of induction. For IL-23-induced psoriasis, the mice were assigned to the following treatment groups: vehicle (n = 5), IL-23 (n = 5), ETI41 (n = 5), ETI60 (n = 5) and anti-IL-17 Ab (n = 5). Recombinant mouse IL-23 (0.25 mg/kg; BioLegend) was administered via intradermal injection around the ear daily, starting the day after hair removal and continuing until the eighth day. Positive control mice received intraperitoneal (IP) injections of 30 mg/kg anti-mouse IL-17A antibody (BioLegend) on days 2, 5 and 8, while test group mice were administered daily oral doses of 60 mg/kg of ETI41 or ETI60. Changes in body weight and Psoriasis Area and Severity Index (PASI) scores (erythema, scaling and thickness) were recorded daily. Mice were initially anesthetized in an induction chamber with a gas mixture of 4% isoflurane in 70:30 […] and O2, delivered at a flow rate of 0.8 l/min. Subsequently, the isoflurane concentration was reduced to 2%, and the mice were euthanized under anesthesia via endotracheal intubation. Skin samples were collected, fixed and stained with hematoxylin and eosin for histological analysis. Dermal and epidermal thicknesses were measured using a Leica DMi8 microscope (Leica). Immunohistochemical analyses were performed using primary antibodies against CD68 (R&D Systems, MAB101141), Ki-67 (Cell Signaling Technology, 12202), IL-17A (Novus Biologicals, NBP1-72027) and IL-23 (Novus Biologicals, NBP1-76697), followed by detection using biotinylated secondary antibodies (Vector Laboratories) and diaminobenzidine (Vector Laboratories) visualization. Fluorescence measurements for IL-23-induced psoriasis were performed using primary antibodies against CD68 and Ki-67, followed by Alexa Fluor-conjugated secondary antibodies (Life Technologies). Fluorescence was analyzed using a Leica DMi8 microscope.
Anti-IL17A antibody (Ab, 60 µg) was administered by IP injection as a positive control on days 2, 5 and 8. […] CD68 and Ki-67 expression patterns were determined in skin sections from a representative of each group using immunofluorescence. i Ear skin and epidermis thickness, CD68 expression and percentage of Ki-67 cells were examined from 4’,6-diamidino-2-phenylindole-stained cells. Statistical differences between the induced case and other cases were analyzed and verified using a one-tailed Student’s t-test (*P < 0.05, **P < 0.01, ***P < 0.001).

For `Cc1cc2c(N)c3c(nc2n1CCCN(C)C)CCCCCC3` [ETI41], the “IMQ- or ODN2395-induced phosphorylation of MAPKs (p-ERK, p-JNK, p-p38), nuclear translocation of NF-κB p65, Iκ-Bα degradation and IRF7 expression” value [1] was “inhibited”, the “Dermal inflammatory cell infiltration” value (IMQ-induced psoriasis) was “inhibited” and the Dermal thickness (IMQ-induced psoriasis) was “significantly reduced”. The Epidermal acanthosis (IMQ-induced psoriasis) was “significantly reduced”, the “IL-17A and IL-23 expression” value (IMQ-induced psoriasis) was “inhibited” and the Keratinocyte proliferation (IMQ-induced psoriasis) was “significantly reduced”. The PASI scores (IMQ-induced psoriasis) was “significantly reduced” and the Toxicity tests (doses ranging from 150 to 300 mg/kg) was “confirmed their safety”.
With `COc1ccc2c3c(N)c4c(nc3n(CCCN(C)C)c2c1)CCCC4` [ETI60] the “IMQ- or ODN2395-induced phosphorylation of MAPKs (p-ERK, p-JNK, p-p38), nuclear translocation of NF-κB p65, Iκ-Bα degradation and IRF7 expression” value [1] was “inhibited”, the “Dermal inflammatory cell infiltration” value (IMQ-induced psoriasis) was “inhibited” and the Dermal thickness (IMQ-induced psoriasis) was “significantly reduced”. For the same molecule, the Epidermal acanthosis (IMQ-induced psoriasis) was “significantly reduced”, the “IL-17A and IL-23 expression” value (IMQ-induced psoriasis) was “inhibited” and the Keratinocyte proliferation (IMQ-induced psoriasis) was “significantly reduced”. For the same molecule, the PASI scores (IMQ-induced psoriasis) was “significantly reduced” and the Toxicity tests (in vivo) was “confirmed their safety”.
